According to paper PMC9190012, “Heparin activation of protein Z-dependent protease inhibitor (ZPI) allosterically blocks protein Z activation through an extended heparin-binding site” (The Journal of Biological Chemistry, 2022):

Molecular target: T1, NBD-ZPI (Homo sapiens, UniProt Q9UK55, C190A/C285S/K260C)
T1 construct: made in house; host or cells: Escherichia coli
T1 sequence (Q9UK55 22-444 C190A/K260C/C285S): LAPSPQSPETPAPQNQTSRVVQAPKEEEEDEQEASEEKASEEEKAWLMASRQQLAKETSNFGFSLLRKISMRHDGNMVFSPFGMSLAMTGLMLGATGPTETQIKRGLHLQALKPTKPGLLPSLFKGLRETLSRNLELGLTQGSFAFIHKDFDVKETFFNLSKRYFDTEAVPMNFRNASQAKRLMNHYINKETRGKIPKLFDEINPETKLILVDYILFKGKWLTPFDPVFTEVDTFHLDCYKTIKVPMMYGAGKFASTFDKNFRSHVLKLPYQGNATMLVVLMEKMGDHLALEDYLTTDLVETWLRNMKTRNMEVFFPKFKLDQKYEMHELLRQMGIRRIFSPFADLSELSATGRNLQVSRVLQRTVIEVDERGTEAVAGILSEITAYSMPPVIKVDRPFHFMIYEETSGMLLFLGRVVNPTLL
Assay: Competitive binding titrations of NBD-ZPI–PZ complex with heparins (quenching of NBD fluorescence)
Conditions: competitive titration of NBD-ZPI–PZ complex (50 nM ZPI/62 nM PZ), 0.1 M NaCl buffer; read-out: ZPI–heparin KD,H
Experimental: Equilibrium binding of heparin to NBD-ZPI was measured by competitive binding titrations in which heparins of various lengths were titrated into NBD-ZPI (50 nM) complexed with a molar excess of PZ (62 nM) in a lower ionic strength buffer (0.1 M NaCl) and heparin binding followed by the quenching of NBD-ZPI–PZ complex fluorescence. Titrations were computer fit by the competitive binding equation, ΔFmax−ΔFobs/ΔFmax=Fobs−F∞/F0−F∞=[ZPI]0+[PZ]0+KD,PZ×(1+[H]0/KD,H)−([ZPI]0+[PZ]0+KD,PZ×(1+[H]0/KD,H))^2−4×[ZPI]0×[PZ]0/[ZPI]0+[PZ]0+KD,PZ−([ZPI]0+[PZ]0+KD,PZ)^2−4×[ZPI]0×[PZ]0
in which ΔFobs is the observed change in fluorescence of PZ complexed and uncomplexed NBD-ZPI before (Fo) and after heparin addition (Fobs), ΔFmax is the maximal fluorescence change upon reaching the end point fluorescence of NBD-ZPI after complete dissociation of PZ (F∞), [ZPI]o, [PZ]o, and [H]o are total concentrations of NBD-ZPI, PZ, and heparin, respectively, and KD,PZ and KD,H are dissociation constants for the NBD-ZPI–PZ and the NBD-ZPI–heparin interactions, respectively. […] In fitting data to the aforementioned equation, KD,PZ was fixed at the value determined by titration of NBD-ZPI with PZ in the absence of heparin, and KD,H was the fitted parameter.

Work on `CO[C@H]1O[C@H](COS(=O)(=O)O)[C@@H](O[C@@H]2O[C@@H](C(=O)O)[C@@H](O[C@H]3O[C@H](COS(=O)(=O)O)[C@@H](O[C@@H]4O[C@H](C(=O)O)[C@@H](O[C@H]5O[C@H](COS(=O)(=O)O)[C@@H](O)[C@H](O)[C@H]5NS(=O)(=O)O)[C@H](O)[C@H]4O)[C@H](OS(=O)(=O)O)[C@H]3NS(=O)(=O)O)[C@H](O)[C@H]2OS(=O)(=O)O)[C@H](O)[C@H]1NS(=O)(=O)O` [H5, fondaparinux] yielded a Kd of 32.4 ± 1.9 µM.
